# Data reported in patent US10285986B2, “Compounds and anti-tumor NQO1 substrates” (The Board of Trustees of the University of Illinois, priority 2011, dated 2019).
# Values joined by “and” are separate entries in the source; they are usually repeats but may differ in a detail not shown here. Equal values may be shown once. Read-outs that look alike come from different tables or passages of the source.
# Legend:
# MCF-7 cells = assay: Cytotoxicity to MCF-7 cells with or without 25 μM dicoumarol (sulforhodamine B assay); format: cell-based, human; settings: for IC50: Homo sapiens; for Fold Protection of MCF7 cells w/ 25 μM dicoumarol: Table 1
# Method: The NQO1-dependent cytotoxicity of the first set of derivatives was determined in MCF-7 cells which express high levels of NQO1. Cells were exposed to DNQ for 2 hours in the presence or absence of 25 μM DIC. The media was then removed and cells were washed once with media then fresh media was added and the cells were incubated for 72 hours. Cell death was assessed using the sulforhodamine B assay previously described. […] Substitution off the nitrogen appeared well tolerated (4-14 and 4-15).
# The DNQ derivatives synthesized were assayed for their toxicity to MCF-7 cells with or without DIC. The data from these experiments is organized in Table 4.2. […] This tolerance of sterically-demanding substituents corresponds with a flexible and promiscuous NQO1 active site. The poor activity of hydroxyl derivative 4-41 may be a result of either poor binding with the largely hydrophobic NQO1 active site or with an excessively strong substrate-enzyme interaction because of hydrogen bonding.
# NQO1 = NQO1 (Homo sapiens, UniProt P15559); assay: NQO1 enzymatic measurements in vitro; format: biochemical; settings: 1 μM substrate
# Sequence of NQO1 (P15559 whole entry): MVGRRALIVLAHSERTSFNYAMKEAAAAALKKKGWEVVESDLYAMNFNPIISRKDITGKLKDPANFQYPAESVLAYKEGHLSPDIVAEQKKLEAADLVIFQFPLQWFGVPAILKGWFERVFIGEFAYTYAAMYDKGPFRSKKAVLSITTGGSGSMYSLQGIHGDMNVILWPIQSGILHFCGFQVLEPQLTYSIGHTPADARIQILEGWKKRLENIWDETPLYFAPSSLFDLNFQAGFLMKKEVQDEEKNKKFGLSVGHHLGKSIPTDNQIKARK
# Method: As further evidence that the activity of these DNQ derivatives is dependent on their ability to be reduced by NQO1, full enzymatic measurements in vitro were performed. We found a strong correlation between catalytic efficiency of substrates in vitro and their cell culture toxicity. […] This provides strong evidence that the cytotoxicity of DNQ and its derivatives are dependent primarily upon the activity of NQO1 within the cell.
# [1] = Aqueous solubility in pH 7.4 PBS by LC-MS; format: physicochemical; settings: phosphate buffered saline, pH 7.4, aqueous buffer, thermodynamic from solid, PBS pH 7.4; Table 4.3
# Method: The aqueous solubility of DNQ at pH 7.4 in phosphate buffered saline (PBS) was measured by LC-MS. DNQ was sonicated for 30 minutes in PBS then undissolved solid was removed by filtration through a 0.45 μm syringe filter and the filtrate was analyzed by LC-MS (λ=275 nm, ESI-TOF in negative mode). The optimal sonication time was determined by sonicating DNQ for 1, 5, 10, and 30 minutes. While the concentration of DNQ in solution increased substantially between 1, 5, and 10 minutes, there was only a minor difference between 10 and 30 minutes. During the 30 minute sonication the water bath warmed to 45° C. (samples were cooled to room temperature before filtration). A calibration curve was generated from 1-100 μM by dissolving DNQ in methanol to a concentration of 500 μM and making dilutions of this stock in 80:20 water:methanol. The calibration curve (measure by UV absorbance) was linear over this range; 1 μM was approximately the limit of detection. […] The solution was very pale yellow.
# The aqueous solubility of the compounds was determined by an LC-MS assay as described in the specification above. We applied the calibration curve generated for DNQ to the derivatives under the assumption that the UV profile of the derivatives of DNQ would be similar to that of DNQ.
# After sonication and filtration most of the aqueous solutions were colorless. The solutions of DNQ, 4-31, and 4-37 were faintly yellow while 4-8, 4-14 and 4-41 were substantially more colored. The solution of 4-8, 4-14 and 4-41 were diluted 10-fold with PBS prior to LC-MS analysis to ensure that the concentrations fell within the range of the calibration curve.
# [2] = Solubility in 20% HPβCD solution (pH modulation protocol); format: physicochemical; settings: 20% HPβCD in pH 7.4 PBS, pH 7.4, aqueous with cosolvent or surfactant or cyclodextrin, thermodynamic from solid; 20% HPβCD; Table 4.3
# Method: The protocol for formulating DNQ compounds in HPβCD is as follows: the DNQ compound is slurried in a 20% solution of HPβCD in pH 7.4 PBS and the pH is then increased by the addition of 10 M NaOH to induce dissolution of the DNQ compound. The pH is returned to pH 7.5-8.0 by the careful addition of 1 M HCl. A 3.3 mM solution of the DNQ compound can be made by this method which is stable at least 24 hours. This represents a 30-fold increase in solubility of DNQ over PBS alone.
# Although we were pleased to find active derivatives of DNQ that were up to 4-fold more soluble in water—sufficiently soluble for continuous IV infusion for human administration—this level of solubility was insufficient for animal studies by bolus injection. […] We used the same pH modulation protocol outlined for DNQ described in the specification above. The results are organized in Table 4.3 and FIG. 8. While all compounds were more soluble in HPβCD than in buffer alone, the fold increase in solubility varied widely.
# [3] = Solubility in organic solvents; format: physicochemical; settings: for solubility: organic solvent or mixture, thermodynamic from solid
# Method: The solubility of DNQ derivatives in organic solvents was determined by measuring the amount of a given solvent required to dissolve a known amount of compound. Solvent was added to the compound in 50 μL aliquots and the slurry was sonicated. […] Solubility was assessed in DMSO, dichloromethane, and 33% methanol in dichloromethane (FIGS. 9, 10, and 11, respectively).
# [4] = Maximum tolerated dose in mice; settings: mouse, in vivo, ip
# Source text: Because of the difficulty of repeated tail vein injections in mice, our group is using IP administration of compound.
# All of these derivatives are currently being assessed for their maximum tolerated dose (MTD) in healthy mice. Compounds are formulated in HPβCD and delivered by IP injection to two mice once daily for five days.
# [5] = Solubility in organic solvents; format: physicochemical; settings: organic solvent or mixture, thermodynamic from solid; THF; Table 1
# [6] = MCF7, 2 h, Table 4.1, 2 h exposure, no DIC, ± s.e., read-out: IC50 vs. MCF-7 cells
# [7] = MCF7, Table 1, read-out: MCF7 IC50
# [8] = MCF7, classification in figure legends of FIGS. 7-11, read-out: IC50 ("active" / generally "inactive" compounds)
# [9] = MCF7, read-out: IC50 vs. MCF-7 cells +25 μM DIC, Table 4.1, +25 μM DIC, ± s.e.
# [10] = 2:1 CH2Cl2:MeOH, Table 4.3, read-out: Solubility in 2:1 CH2Cl2:MeOH
# [11] = CH2Cl2:MeOH 2:1, Table 1, read-out: CH2Cl2:MeOH 2:1 solubility
# [12] = CH2Cl2, Table 1, read-out: CH2Cl2 solubility
# [13] = DMSO, Table 1, read-out: DMSO solubility
# [14] = MCF7, Table 4.2, no DIC, ± s.e., read-out: IC50 vs. MCF-7 cells
# [15] = MCF7, read-out: IC50 vs. MCF-7 cells +25 μM DIC, Table 4.2, +25 μM DIC, ± s.e.
# [16] = CH2Cl2, Table 4.3, read-out: Solubility in CH2Cl2
# [17] = DMSO, Table 4.3, read-out: Solubility in DMSO
Compound,IC50 (MCF-7 cells; [7]) [nM],IC50 (MCF-7 cells; [8]) [nM],Fold Protection of MCF7 cells w/ 25 μM dicoumarol (MCF-7 cells),NQO1 Initial Velocity @ 1 μM (NQO1),solubility at 30 min [1] [mM],solubility [2] [mM],"Solubility in CH2Cl2 ([3]; CH2Cl2, Table 4.3) [mM]","Solubility in DMSO ([3]; DMSO, Table 4.3) [mM]","solubility [3, 10] [mM]","solubility [3, 11] [mM]","solubility [3, 12] [mM]","solubility [3, 13] [mM]",MTD at 5 days [4],solubility [5] [mM],IC50 (MCF-7 cells; [14]) [nM],IC50 (MCF-7 cells; [15]) [nM],Fold protection by DIC (MCF-7 cells; Table 4.2),further results
CCCn1c2c(c(C)cc1=O)C(=O)c1c(C)cc(=O)[nH]c1C2=O [Compound 10-41],120 ± 10,< 500,10,1590 ± 70,0.039,6.3,3.9,8.9,32,32,3.9,8.9,≥ 14 mg/kg and ≥ 44 µmol/kg,3.4,,,,IC50 (MCF-7 cells; [6]): 130 ± 10 nM; IC50 (MCF-7 cells; [9]): 1300 ± 400 nM; Fold protection by DIC (MCF-7 cells; Table 4.1): 10
Cc1cc(=O)[nH]c2c1C(=O)c1c(C)cc(=O)n(CCC(C)C)c1C2=O [Compound 9-249],150 ± 30,< 500,12,2100 ± 90,0.006,4.7,9.7,8.6,58,58,9.7,8.6,15 mg/kg and 44 µmol/kg,8.8,180 ± 30,1800 ± 500,10,
CCn1c2c(c(C)cc1=O)C(=O)c1c(C)cc(=O)[nH]c1C2=O [Compound 109],530,< 500,4.5,1500 ± 100,0.319,5.7,9.5,24,19,19,9.5,24,10 mg/kg and 35 µmol/kg,18,,,,IC50 (MCF-7 cells; [6]): 200 ± 10 nM; IC50 (MCF-7 cells; [9]): 3400 ± 200 nM; Fold protection by DIC (MCF-7 cells; Table 4.1): 17
CCCCCCn1c2c(c(C)cc1=O)C(=O)c1c(C)cc(=O)[nH]c1C2=O [Compound 9-257],260 ± 40,< 500,11,1850 ± 60,< 0.005,6,32,18,140,140,32,18,≥ 16 mg/kg and ≥ 44 µmol/kg,27,290 ± 40,3000 ± 600,10,
Cc1cc(=O)[nH]c2c1C(=O)c1c(C)cc(=O)n(CC3CC3)c1C2=O [Compound 4-37],,< 500,,,0.114,4.3,,,51,,,,,,220 ± 10,1400 ± 200,6.1,"solubility [3, 16]: 13 mM; solubility [3, 17]: 25 mM"
Cc1cc(=O)[nH]c2c1C(=O)c1c(C)cc(=O)n(C(C)C)c1C2=O [Compound 4-30],,< 500,,,0.041,3.7,,,79,,,,,,240 ± 20,2100 ± 800,8.6,"solubility [3, 16]: 5.6 mM; solubility [3, 17]: 21 mM"
CCCCCn1c2c(c(C)cc1=O)C(=O)c1c(C)cc(=O)[nH]c1C2=O [Compound 9-255],190 ± 10,< 500,11,1700 ± 40,< 0.005,5,22,17,95,95,22,17,≥ 15 mg/kg and ≥ 44 µmol/kg,16,200 ± 10,2000 ± 900,10,
CCCCn1c2c(c(C)cc1=O)C(=O)c1c(C)cc(=O)[nH]c1C2=O [Compound 4-22],270,< 500,5.5,2100 ± 300,0.017,4,7.6,10,30,30,7.6,10,,6.1,270 ± 40,1500 ± 400,5.5,
Cc1cc(=O)[nH]c2c1C(=O)c1c(C)cc(=O)n(CC(C)(C)C)c1C2=O [Compound 9-253],110 ± 40,< 500,9,1700 ± 100,0.024,9.4,23,16,100,100,23,16,≥ 15 mg/kg and ≥ 44 µmol/kg,20,230 ± 10,2100 ± 700,8.9,
